Measurements published in US20120015965A1, “PHARMACEUTICAL COMPOSITION COMPRISING N-[3-CHLORO-4-[(3-FLUOROPHENYL)METHOXY] PHENYL]-6-[5[[[2-(METHYLSULFONYL) ETHYL]AMINO]METHYL]-2-FURYL]-4- QUINAZOLINAMINE” (Ratiopharm GmbH, priority 2008, published 2012).

Experiment: Wetting angle (contact angle) of the API by goniometer
Assay type: physicochemical
Details: advancing contact angle, water, 22° C., about 34% RH; accuracy about ±2°; ditosylate monohydrate
Method: Alternatively, the above described necessities can be complied with if the active pharmaceutical ingredient used in the preparation of the pharmaceutical composition has a low wetting angle (also: contact angle). The contact angle is a measure of the wettability, that is the lower the contact angle of a given substance, the better it's wettability. Preferably, the wetting angle is below 55°, preferably below 50° and most preferred below 47°. The wetting angle can be measured according to standard methods known in the art, e.g. by means of a goniometer. For this measurement 0.3 g of API is compressed using a KBr press (2000 kg for 2 minutes) to a moulding with a diameter of 1.25 cm. The sample is stored at 100% RH and placed on a glass frit that is kept in contact with water (Millipore quality) one hour prior to the measurement. The wetting angle is then measured on an OCA40, Dataphysics Instruments GmbH, Filderstadt, at 22° C. and about 34% RH at three different sample positions and at different drop sites (3-5 μl of water, Millipore quality) by a static measurement of advancing and receding contact angles via drop contour analysis using ellipse fit (SCA 20, Dataphysics Instruments GmbH, Filderstadt). The wetting angle is defined as the advancing contact angle. The accuracy of measurement is about ±2°.

Row | contact angle | Substance
1 | 56 ° | Lapatinib ditosylate monohydrate [API used in examples 1 and 2]
2 | 45 ° | Lapatinib ditosylate monohydrate [API used in examples 3 to 5]
